Our source for the Ki and EC50 values is patent US20050124683A1, “HIV protease inhibitors, compositions containing the same, their pharmaceutical uses and materials for their synthesis” (priority 2003, published 2005).

Molecules are shown by their SMILES.

One assay concerns the target T1, HIV-1 protease (Human immunodeficiency virus type 1 group M subtype B, UniProt P04585, Q495S).
T1 construct: made in house
The assay is described as follows: HIV-1 Protease RET assay (Ki, resonance energy transfer). Format: biochemical. Particulars: Q7S mutant HIV-1 protease; read-out: Ki (nm). Here is the method: Ki's for the inhibitors of HIV-1 protease were determined using a resonance energy transfer (RET) assay. […] This enzyme is first partially purified as inclusion bodies from cell lysate. It is then solublized in 8M urea and passed through a Q-Sepharose column (Pharmacia) for further purification. To refold this protein, samples containing Q7S is dialyzed into 50 mM sodium phosphate pH 7.0, 50 mM NaCl, 10 mM DTT, and 10% glycerol.
The commercially available peptide substrate (Molecular Probes Cat. # H-2930) RE(EDANS)SQNYPIVQK(DABCYL)R is used to assess activity and Ki's. This peptide is cleaved quantitatively by HIV-1 Pr at the Tyr-Pro bond. The EDANS fluorophore absorbs at 340 nm and emits at 490 nm. The reaction is carried out in a 96 well plate in a total volume of 100 µL and is run for 12 minutes at 37C under steady-state conditions with 5 µM substrate and 2 nM active dimer enzyme concentration. The literature value Km for this substrate and enzyme is 103+/−8 μM (See Matayoshi, et al., “Novel Fluorogenic Substrates for Assaying Retroviral Proteases by Resonance Energy Transfer,” Science 247, 954 (1990)). The buffer for this reaction is 0.1M sodium acetate pH 4.8, 1M NaCl, 1 mM EDTA, 5 mM dithiothreitol, 10% dimethyl sulfoxide and 1 mg/ml bovine serum albumin. Inhibition curves are fit using the Morrison tight binding equation.

The next assay has as its system HIV-1. The assay can be described thus: Antiviral EC50 in HIV-infected T-cell lines (CPE inhibition / susceptibility assays). Particulars: Human immunodeficiency virus 1, T-cell, read-out: EC50 (wt) (nm), wt virus. Format: cell-based. Here is the method: T-cell lines, CEM-SS, and MT-2, and viruses HIV-1 RF and HIV-1 NL4-3 (pNL4-3) were obtained from the National Institutes of Health (AIDS Research and Reference Reagent Program, Bethesda, MD).
The ability of compounds to protect cells against HIV infection was measured by the […] dye reduction method, essentially as described (See Pauwels, R. Balzarini, J. Baba, M. Snoeck, R. Schols, D. Herdewijn, P. Desmyter, J. and De Clercq, E. 1988, “Rapid and automated tetrazolium-based colorimetric assay for the detection of anti-HIV compounds,”. J Virol. Methods., 20: 309-321 and Weislow, O. S. Kiser, R. Fine, D. L. Bader, J. Shoemaker, R. H. and Boyd, M. R. 1989. “New soluble-formazan assay for HIV-1 cytopathic effects: application to high-flux screening of synthetic and natural products for AIDS-antiviral activity”. J. Natl. Cancer Inst. 81:577-586). Subject cells were infected with test virus at an moi of 0.025 to 0.819 or mock infected with medium only and added at 2×10^4 cells per well into 96 well plates containing half-log dilutions of test compounds. Six days later, 50 μl of XTT (1 mg/ml XTT tetrazolium, […] phenazine methosulfate) was added to the wells and the plate was reincubated for four hours. Viability, as determined by the amount of XTT formazan produced, was quantified spectrophotometrically by absorbance at 450 nm. Data from CPE assays were expressed as the percent of formazan produced in compound-treated cells compared to formazan produced in wells of uninfected, compound-free cells. The fifty percent effective concentration (EC50) was calculated as the concentration of compound that effected an increase in the percentage of formazan production in infected, compound-treated cells to 50% of that produced by uninfected, compound-free cells. The 50% cytotoxicity concentration (CC50) was calculated as the concentration of compound that decreased the percentage of formazan produced in uninfected, compound-treated cells to 50% of that produced in uninfected, compound-free cells. The therapeutic index was calculated by dividing the cytotoxicity (CC50) by the antiviral activity (EC50).
Compounds were tested in phenotypic susceptibility assays at Virologic, Inc., (See Petropoulos C. J., Parkin N. T., Limoli K. L., Lie Y. S., Wrin T., Huang W., Tian H., Smith D., Winslow G. A., Capon D J, Whitcomb J M. 2000, “A novel phenotypic drug susceptibility assay for human immunodeficiency virus type 1,” Antimicrob Agents Chemother 44(4):920-928) or using the assay described here. MT-2 cells were infected with either HIV-1 NL4-3 or HIV-1 NL4-3(I84V/L90M) and incubated in the presence of serial 0.5 log dilutions of test compounds. Three days later, culture supernatants were collected and virus production, as determined by p24 ELISA, was assayed. Percent inhibition was calculated as p24 concentration in compound-treated samples as compared to infected, compound-free controls. Inhibition of viral replication is determined by measuring reduction in HIV p24 present in the culture supernatant, using a Beckman-Coulter p24 HIV-1 Ag EIA kit and following the supplied protocol. Absorbance is read on a MRX microplate reader (Dynex Technologies). The EC50 was calculated as the concentration of compound that effected a decrease in the p24 production by infected, compound-treated cells to 50% of that produced by infected, compound-free cells.

On to `CC[C@H](C)CNC(=O)[C@H]1N(C(=O)[C@@H](O)[C@H](Cc2ccccc2)NC(=O)c2cccc(O)c2C)CC(F)(F)C1(C)C` [drawing 143], for which the Ki at HIV-1 protease was less than 0.0001 µM. Further, the EC50 in the assay on HIV-1 was 0.011 µM.

`Cc1cc(O)c(C)c(C(=O)N[C@@H](Cc2ccccc2)[C@H](O)C(=O)N2CC(F)(F)C(C)(C)C2C(=O)NCC(C)C)c1` (stereo partly shown): the Ki on HIV-1 protease was less than 0.0001 µM. The EC50 with HIV-1 amounted to 0.031 µM.

A word on the Ki: it is a dissociation constant, usually derived from enzyme kinetics or from competition with a known ligand. The EC50 is the midpoint of the concentration-response curve.
